Data on nine compounds can be found in ChEMBL document CHEMBL3877294, “Discovery of Ruzasvir (MK-8408): A Potent, Pan-Genotype HCV NS5A Inhibitor with Optimized Activity against Common Resistance-Associated Polymorphisms” (J Med Chem, 2017).

Holding throughout (assay type): cell-based
Test [1] concerns Huh-7. The experiment in a line: Inhibition of HCV genotype-1a NS5A infected in human HuH7 cells by luciferase reporter gene assay. To be noted: Hepatitis C virus subtype 1a.
Test [2] deals with T1, Nonstructural protein 5A (Hepatitis C virus), Q5L478 [Y93H].
T1 sequence (whole entry): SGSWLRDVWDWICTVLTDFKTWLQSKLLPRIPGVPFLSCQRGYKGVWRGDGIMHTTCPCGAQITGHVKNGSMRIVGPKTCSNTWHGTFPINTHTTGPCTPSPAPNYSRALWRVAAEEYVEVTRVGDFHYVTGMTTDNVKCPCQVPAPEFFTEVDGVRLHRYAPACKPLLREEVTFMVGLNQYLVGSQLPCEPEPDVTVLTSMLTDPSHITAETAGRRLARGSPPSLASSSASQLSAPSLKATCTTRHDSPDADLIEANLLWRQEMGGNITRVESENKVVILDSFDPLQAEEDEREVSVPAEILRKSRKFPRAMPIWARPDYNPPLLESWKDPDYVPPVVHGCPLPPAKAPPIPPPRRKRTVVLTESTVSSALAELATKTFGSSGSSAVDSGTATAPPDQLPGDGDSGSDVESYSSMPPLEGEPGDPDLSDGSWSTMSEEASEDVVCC
The experiment in a line: Inhibition of HCV genotype-1a NS5A Y93H mutant infected in human HuH7 cells by luciferase reporter gene assay. To be noted: Hepatitis C virus subtype 1a; Huh-7. (A reporter such as luciferase makes a cellular process visible.)

For test [3], the system named is Huh-7. The test is described as follows: Inhibition of HCV genotype-2b NS5A harboring methionine at position 31 infected in human HuH7 cells by luciferase reporter gene assay. To be noted: Hepatitis C virus subtype 2b.
Test [4] has as its system Nonstructural protein 5A (Hepatitis C virus), Q5L478 [UNDEFINED MUTATION]. The test is described as follows: Inhibition of HCV genotype-1a NS5A L31V mutant infected in human HuH7 cells by luciferase reporter gene assay. The note with it: Hepatitis C virus subtype 1a; Huh-7.
The test system of test [5] is Huh-7. The experiment in a line: Inhibition of HCV genotype-3a NS5A infected in human HuH7 cells by luciferase reporter gene assay. To be noted: Hepatitis C virus subtype 3a.
The subject of test [6] is Huh-7. The test is described as follows: Inhibition of HCV genotype-4a NS5A infected in human HuH7 cells by luciferase reporter gene assay. The note with it: Hepatitis C virus subtype 4a.

For the compound `COC(=O)N[C@H](C(=O)N1CCC[C@H]1c1ncc(-c2cc(F)c3c(c2)OC(c2cnc(C(C)C)s2)n2c-3cc3cc(-c4cnc([C@@H]5CCCN5C(=O)[C@@H](NC(=O)OC)C(C)C)[nH]4)ccc32)[nH]1)C(C)C` (some centres undefined), the 90% effect concentration (EC90) (as a rule, the concentration needed for an effect of 90%) in the test with Huh-7 [1] amounted to 2 pM; in test [2], 50 pM; with Huh-7 [3], 140 pM; in test [4] it was 22 pM; in the test on Huh-7 [5] it was 6 pM; in the test on Huh-7 [6] it was 4 pM.
Regarding `COC(=O)N[C@H](C(=O)N1CCC[C@H]1c1ncc(-c2cc(F)c3c(c2)OC(c2cnc(OC)s2)n2c-3cc3cc(-c4cnc([C@@H]5CCCN5C(=O)[C@@H](NC(=O)OC)C(C)C)[nH]4)ccc32)[nH]1)C(C)C` (some centres undefined), the EC90 with Huh-7 [1] turned out to be 2 pM; in test [2], 35 pM; with Huh-7 [3], 68 pM; in test [4], 15 pM; in the test on Huh-7 [5] it was 7 pM; in the test with Huh-7 [6], 4 pM.
Turning to `COC(=O)N[C@H](C(=O)N1CCC[C@H]1c1ncc(-c2cc(F)c3c(c2)OC(c2sc(C(C)C)nc2C)n2c-3cc3cc(-c4cnc([C@@H]5CCCN5C(=O)[C@@H](NC(=O)OC)C(C)C)[nH]4)ccc32)[nH]1)C(C)C` (some centres undefined), the EC90 with Huh-7 [1] is 4 pM; in test [2], 12500 pM; in the test on Huh-7 [3] it was > 1700 pM; in test [4], 360 pM; in the test on Huh-7 [5], 34 pM; with Huh-7 [6], 9 pM.
On to `COC(=O)N[C@H](C(=O)N1CCC[C@H]1c1ncc(-c2cc(F)c3c(c2)OC(c2cc(F)c(C4CC4)s2)n2c-3cc3cc(-c4cnc([C@@H]5CCCN5C(=O)[C@@H](NC(=O)OC)C(C)C)[nH]4)ccc32)[nH]1)C(C)C` (some centres undefined), for which the concentration for an effect of 90% (EC90) in the test on Huh-7 [1] turned out to be 5 pM; in test [2] it was 170 pM; with Huh-7 [3], 680 pM; in test [4], 29 pM; with Huh-7 [5] it was 12 pM; with Huh-7 [6], 14 pM.
With `COC(=O)N[C@H](C(=O)N1CCC[C@H]1c1ncc(-c2cc(F)c3c(c2)OC(c2cc4c(s2)CCCC4)n2c-3cc3cc(-c4cnc([C@@H]5CCCN5C(=O)[C@@H](NC(=O)OC)C(C)C)[nH]4)ccc32)[nH]1)C(C)C` (some centres undefined), the EC90 in the test on Huh-7 [1] stood at 5 pM; in test [2], 310 pM; with Huh-7 [3] it was 610 pM; in test [4], 27 pM; in the test with Huh-7 [5], 20 pM; in the test with Huh-7 [6] it was 8 pM.
In the case of `COC(=O)N[C@H](C(=O)N1CCC[C@H]1c1ncc(-c2cc(F)c3c(c2)OC(c2cnc(C4(C)CC4)s2)n2c-3cc3cc(-c4cnc([C@@H]5C[C@H]6C[C@H]6N5C(=O)[C@@H](NC(=O)OC)C(C)C)[nH]4)ccc32)[nH]1)C(C)C` (some centres undefined), the EC90 worked out at 5 pM with Huh-7 [1]; 20 pM in test [2]; 180 pM with Huh-7 [3]; 7 pM in test [4]; 9 pM in the test on Huh-7 [5]; 5 pM in the test with Huh-7 [6].
For `COC(=O)N[C@H](C(=O)N1CCC[C@H]1c1ncc(-c2cc(F)c3c(c2)OC(c2ccc(C#N)s2)n2c-3cc3cc(-c4cnc([C@@H]5CCCN5C(=O)[C@@H](NC(=O)OC)C(C)C)[nH]4)ccc32)[nH]1)C(C)C` (some centres undefined), the EC90 was < 2 pM in the test on Huh-7 [1]; 2380 pM in test [2]; 3400 pM in the test on Huh-7 [3]; 87 pM in test [4]; 13 pM in the test with Huh-7 [5]; 4 pM in the test on Huh-7 [6].
Turning to `COC(=O)N[C@H](C(=O)N1CCC[C@H]1c1ncc(-c2cc(F)c3c(c2)OC(c2cnc(CC(F)(F)F)s2)n2c-3cc3cc(-c4cnc([C@@H]5CCCN5C(=O)[C@@H](NC(=O)OC)C(C)C)[nH]4)ccc32)[nH]1)C(C)C` (some centres undefined), the EC90 was found to be 5 pM in the test on Huh-7 [1]; 180 pM in test [2]; 220 pM with Huh-7 [3]; 50 pM in test [4]; 15 pM with Huh-7 [5]; 13 pM with Huh-7 [6].
Regarding `CCCc1ccc(C2Oc3cc(-c4cnc([C@@H]5CCCN5C(=O)[C@@H](NC(=O)OC)C(C)C)[nH]4)cc(F)c3-c3cc4cc(-c5cnc([C@@H]6CCCN6C(=O)[C@@H](NC(=O)OC)C(C)C)[nH]5)ccc4n32)s1` (some centres undefined), the EC90 came out at 5 pM in the test with Huh-7 [1]; 69 pM in test [2]; 440 pM in the test on Huh-7 [3]; 13 pM in test [4]; 9 pM in the test with Huh-7 [5]; 5 pM in the test on Huh-7 [6].
